ChEMBL document CHEMBL1127868, “Synthesis and In Vitro evaluation of fused ring heterocyle-containing angiotensin II antagonists” (Bioorg Med Chem Lett, 1994)

The compounds below were run against T1, Type-1 angiotensin II receptor (Oryctolagus cuniculus, UniProt P34976) (assay: pA2 value determined in vitro against angiotensin II receptor, type 1 using rabbit aortic rings). Conditions: read-out: pA2 (converted).
T1 sequence (P34976 whole entry): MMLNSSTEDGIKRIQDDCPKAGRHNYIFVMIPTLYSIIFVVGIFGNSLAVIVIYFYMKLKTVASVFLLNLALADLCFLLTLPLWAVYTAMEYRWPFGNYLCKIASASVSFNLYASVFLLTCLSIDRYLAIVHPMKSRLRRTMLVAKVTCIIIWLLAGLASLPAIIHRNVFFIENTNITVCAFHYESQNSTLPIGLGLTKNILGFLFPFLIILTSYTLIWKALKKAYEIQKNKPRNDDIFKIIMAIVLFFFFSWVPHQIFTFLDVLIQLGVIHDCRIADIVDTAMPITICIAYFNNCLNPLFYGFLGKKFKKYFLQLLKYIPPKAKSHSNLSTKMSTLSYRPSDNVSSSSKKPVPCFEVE
With `CCCCN(Cc1ccc(-c2ccccc2-c2nn[nH]n2)cc1)c1ncnc2c1nc(C)n2C` the Kb was 9.33 nM. `CCCCN(Cc1ccc(-c2ccccc2-c2nn[nH]n2)cc1)c1ncnc2c1nc(C#N)n2C` was tested, and the Kb was 72.4 nM. In the case of `CCCCN(Cc1ccc(-c2ccccc2-c2nn[nH]n2)cc1)c1ncnc2c1nc(S(C)(=O)=O)n2C`, the Kb is reported as over 100 nM. `CCc1nc(NCc2ccc(-c3ccccc3-c3nn[nH]n3)cc2)c2cc(OC)ccc2n1` gave a Kb of 2.63 nM. With `CCCCN(Cc1ccc(-c2ccccc2-c2nn[nH]n2)cc1)c1ncnc2c1ncn2C` the Kb was 8.32 nM. With `CCCCN(Cc1ccc(-c2ccccc2-c2nn[nH]n2)cc1)c1ncnc2c1nc(O)n2C` the Kb was 29.5 nM. In the case of `CCCCN(Cc1ccc(-c2ccccc2-c2nn[nH]n2)cc1)c1ncnc2c1nnn2C`, the Kb is reported as 10.7 nM. For `CCCN(Cc1ccc(-c2ccccc2-c2nn[nH]n2)cc1)c1ncccc1C(=O)O`, the Kb was 0.0501 nM. For `CCCCN(Cc1ccc(-c2ccccc2-c2nn[nH]n2)cc1)c1ncnc2ccc(O)cc12`, the Kb was 87.1 nM. `CCCN(Cc1ccc(-c2ccccc2-c2nnn[nH]2)cc1)c1ncnc2cccc(C(=O)OC)c12` showed a Kb of over 100 nM. `CCCN(Cc1ccc(-c2ccccc2-c2nn[nH]n2)cc1)c1ncnc2oc(C)nc12` gave a Kb of 97.7 nM. With `CCCCN(Cc1ccc(-c2ccccc2-c2nnn[nH]2)cc1)c1ncnc2cc(C(=O)O)ccc12` the Kb was 35.5 nM. Compound `CCCCN(Cc1ccc(-c2ccccc2-c2nnn[nH]2)cc1)c1ncnc2nc[nH]c12` has a Kb of 6.76 nM. `CCCN(Cc1ccc(-c2ccccc2-c2nnn[nH]2)cc1)c1ncnc2[nH]cnc12` showed a Kb of 12 nM. Compound `CCCN(Cc1ccc(-c2ccccc2-c2nnn[nH]2)cc1)c1ncnc2c1ncn2CC(=O)O` has a Kb of 7.24 nM. With `CCCCN(Cc1ccc(-c2ccccc2-c2nnn[nH]2)cc1)c1ncnc2nccnc12` the Kb was 115 nM. Compound `CCCN(Cc1ccc(-c2ccccc2-c2nn[nH]n2)cc1)c1ncnc2ncn(C)c12` has a Kb of 933 nM. In the case of `CCc1nc(NCc2ccc(-c3ccccc3-c3nn[nH]n3)cc2)c2ccccc2n1`, the Kb is reported as 2.95 nM. `CCCN(Cc1ccc(-c2ccccc2-c2nn[nH]n2)cc1)c1[nH]cnc2nncc1-2` showed a Kb of 339 nM. Compound `CCCN(Cc1ccc(-c2ccccc2-c2nn[nH]n2)cc1)c1ncnc2cccc(OC)c12` has a Kb of over 100 nM. In the case of `CCCCN(Cc1ccc(-c2ccccc2-c2nnn[nH]2)cc1)c1ncnc2c1nc(C(N)=O)n2C`, the Kb is reported as over 100 nM. `CCCCN(Cc1ccc(-c2ccccc2-c2nn[nH]n2)cc1)c1ncnc2ccc(C(=O)O)nc12` showed a Kb of 6.46 nM. Work on `CCCCN(Cc1ccc(-c2ccccc2-c2nn[nH]n2)cc1)c1ncnc2ccc(C(=O)OC)cc12` yielded a Kb of 107 nM. Compound `CCCN(Cc1ccc(-c2ccccc2-c2nn[nH]n2)cc1)c1ncnc2c1ncn2Cc1ccccc1` has a Kb of 151 nM. `CCCN(Cc1ccc(-c2ccccc2-c2nn[nH]n2)cc1)c1ncncc1C(=O)O` gave a Kb of 0.117 nM. `CCc1nc(NCc2ccc(-c3ccccc3-c3nnn[nH]3)cc2)c2ncn(C)c2n1` was tested, and the Kb was 5.13 nM. For `CCc1nc(N(C)Cc2ccc(-c3ccccc3-c3nn[nH]n3)cc2)c2cc(OC)ccc2n1`, the Kb was 47.9 nM. For `CCc1nc(NCc2ccc(-c3ccccc3-c3nn[nH]n3)cc2)c2c[nH]nc2n1`, the Kb was 138 nM. With `CCc1nc(NCc2ccc(-c3ccccc3-c3nn[nH]n3)cc2)c2cc(C(=O)O)ccc2n1` the Kb was 2.57 nM. `CCCCN(Cc1ccc(-c2ccccc2-c2nnn[nH]2)cc1)c1ncnc2ccc(C(=O)O)cc12` was tested, and the Kb was 9.55 nM. In the case of `CCCCN(Cc1ccc(-c2ccccc2-c2nnn[nH]2)cc1)c1ncnc2cccnc12`, the Kb is reported as 776 nM. `CCCCN(Cc1ccc(-c2ccccc2-c2nnn[nH]2)cc1)c1ncnc2ccc(OC)cc12` showed a Kb of 47.9 nM. For `CCCN(Cc1ccc(-c2ccccc2-c2nnn[nH]2)cc1)c1ncnc2ncn(CC(=O)O)c12`, the Kb was 74.1 nM. In the case of `CCCCN(Cc1ccc(-c2ccccc2-c2nnn[nH]2)cc1)c1ncnc2c1nc(CC)n2C`, the Kb is reported as 30.2 nM. `CCc1nc(NCc2ccc(-c3ccccc3-c3nnn[nH]3)cc2)c2c(OC)cccc2n1` gave a Kb of 8.51 nM. Compound `CCCCN(Cc1ccc(-c2ccccc2-c2nnn[nH]2)cc1)c1ncnc2c1nc(-c1ccccc1)n2C` has a Kb of over 100 nM. Work on `CCCCN(Cc1ccc(-c2ccccc2-c2nn[nH]n2)cc1)c1ncnc2c1nc([S+](C)[O-])n2C` (stereo not given) yielded a Kb of 41.7 nM. `CCCCN(Cc1ccc(-c2ccccc2-c2nn[nH]n2)cc1)c1[nH]cnc2nc(C)nc1-2` gave a Kb of 7.76 nM. `CCCN(Cc1ccc(-c2ccccc2-c2nnn[nH]2)cc1)c1ncnc2cccc(C(=O)O)c12` showed a Kb of over 100 nM.

These compounds were tested on Rattus norvegicus (assay: Dose (po) required to normalize blood pressure in renal artery-ligated rats). Conditions: not given.
Type: functional
Compound `CCCN(Cc1ccc(-c2ccccc2-c2nn[nH]n2)cc1)c1ncccc1C(=O)O` has a Dose of 0.3 mg/kg.
